Where “and” joins values, the source holds several entries; their conditions need not be identical. Equal entries are not always repeated.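 Values below derive from 48-hour exposures of cells grown in 96-well plates, with endpoints linearly interpolated between the two concentrations bracketing the appropriate inhibition level. Here, GI50 denotes the concentration required for 50% inhibition of growth. TGI: concentration producing complete growth inhibition.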
Assays:
Assay in all cases: NCI-60 cell line screen, 48 h
786-0 renal = test system: 786-0 renal
HCT-116 colon = test system: HCT-116 colon
HCT-15 colon = test system: HCT-15 colon
HT29 colon = test system: HT29 colon
MDA-MB-435 = test system: MDA-MB-435
RPMI-8226 leukemia = test system: RPMI-8226 leukemia
SK-MEL-5 melanoma = test system: SK-MEL-5 melanoma
UO-31 renal = test system: UO-31 renal

SMILES	GI50 (786-0 renal)	TGI (786-0 renal)	GI50 (HCT-116 colon) [µM]	TGI (HCT-116 colon)	GI50 (HCT-15 colon) [µM]	TGI (HCT-15 colon) [µM]	GI50 (HT29 colon) [µM]	TGI (HT29 colon)	GI50 (MDA-MB-435) [µM]	TGI (MDA-MB-435) [µM]	GI50 (RPMI-8226 leukemia)	TGI (RPMI-8226 leukemia)	GI50 (SK-MEL-5 melanoma)	TGI (SK-MEL-5 melanoma)	GI50 (UO-31 renal) [µM]	TGI (UO-31 renal) [µM]
C=CCN=C(N/N=C/c1ccc([N+](=O)[O-])o1)NS(=O)(=O)c1cc(C(=O)Nc2ccccc2)c(Cl)cc1SCC(N)=O	63.7 µM	> 100 µM	20.2	49 µM	> 100	> 100	40.8	> 100 µM	17.9	36.7	20.4 µM	55.1 µM	5.45 µM	18.3 µM	> 100	> 100
Cc1nc2c(Br)cc(Br)cc2c(=O)n1-c1ccccc1NC1OCC(O)C(O)C1O (centres undefined)	45.1 µM and 13.6 µM	> 100 µM and 32.6 µM		65.7 µM and 40.2 µM		> 100		66.2 µM and 53.5 µM		> 100	28.5 µM and 9.26 µM	> 100 µM and 41.7 µM	36.9 µM and 13.4 µM	> 100 µM and 31.3 µM		> 100
NC(=O)c1ncn(C2OC(CO)C(O)C2O)c1N (centres undefined)	> 100 µM	> 100 µM	> 100	> 100 µM	> 100	> 100	> 100	> 100 µM	> 100	> 100	> 100 µM	> 100 µM	> 100 µM	> 100 µM	> 100	> 100
CNCc1cccc2c1OCCOCCOCCC(C)S(=O)(=O)c1ccc(cc1)-c1cnc(N)c(n1)C(=O)N2 (centres undefined)	0.516 µM	2.06 µM	1.18	3.35 µM	1.11	6.2	1.44	8.99 µM	1.57	3.3	2.05 µM	5.12 µM	2.05 µM	4.58 µM	0.623	2.09
NC(N)=N/N=C/c1c(-c2ccncc2)nc2sc(Cl)cn12	6.63 µM	17 µM	2.55	6.22 µM	17.6	36.3	17.1	> 51.3 µM	6.63	13.6	6.52 µM	21.1 µM	18.1 µM	36.2 µM	8.93	> 22.7
CCN(CC)CCOc1ccc2c(C)c(C(=O)OC)oc2c1C(=O)/C=C/c1ccc(OC)cc1	16.6 µM	> 45.7 µM	57.8	> 100 µM	1.31	3.57	1.9	13 µM	5.54	15.8	1.58 µM	4.42 µM	20.4 µM	37.2 µM	1.45	
COc1cccc(C2C(C#N)=C(N)Oc3cc4c(cc32)OCO4)c1 (centres undefined)	0.0621 µM	24.1 µM	0.0459	11 µM	0.0525	> 43.5	0.0417	2.42 µM	0.0162	0.0829	0.0828 µM	29.9 µM	0.0332 µM	3.76 µM	0.169	> 100
Cc1ccc(C2=C(Cl)C(=O)C(c3ccc(C)cc3)=C(Cl)C2=O)cc1		> 100 µM		> 100 µM		> 100		> 100 µM		> 100		> 100 µM		> 100 µM		> 100
O=C(Oc1ccc2c(c1)CN(Cc1ccccc1)CO2)c1ccccc1		30.7 µM		30.6 µM		36.2		40.8 µM		54.2		52.7 µM		31.1 µM		31.8
OCC#Cc1ccccc1C#Cc1ccc(C#Cc2ccccc2)cc1	23.5 µM	55.9 µM	16.6	32.3 µM	18.1	38.5	12.7	33.5 µM	21	49.5	6.05 µM	22.2 µM	11.8 µM	25.8 µM	28.6	> 100
COc1cc(/C=C2\C(=O)N(C)c3ccccc32)cc(OC)c1OC	25.3 µM	97.4 µM	11	30.7 µM	10.3	85.5	14.7	> 100 µM	5.02	45.4	9.67 µM	49.1 µM	10.1 µM	27.8 µM	22.7	> 100

From PubChem BioAssay (NCI)
